Test results as given in patent publication US9580423B2, “Bicyclic heterocycles as FGFR4 inhibitors” (Incyte Corporation, priority 2015, dated 2017).
Read-outs that look alike come from different tables or passages of the source.

Tests used:
[1] = target: FGFR1 (Homo sapiens (Human), UniProt P11362); test: FGFR Enzymatic Assay (FRET peptide phosphorylation), FGFR1; conditions: read-out: FGFR1 IC50; pre-incubated for 4 hours
From the text: (§1) The enzymes were purchased from Millipore or Invitrogen.
(§2) GraphPad prism3 was used to analyze the data. The IC50 values were derived by fitting the data to the equation for a sigmoidal dose-response with a variable slope. Y=Bottom+(Top-Bottom)/(1+10^((LogIC50−X)*HillSlope)) where X is the logarithm of concentration and Y is the response.

[2] = target: FGFR2 (Homo sapiens (Human), UniProt P21802); test: FGFR Enzymatic Assay (FRET peptide phosphorylation), FGFR2; conditions: read-out: FGFR2 IC50; pre-incubated for 4 hours
Chain of FGFR2 (P21802 22-821): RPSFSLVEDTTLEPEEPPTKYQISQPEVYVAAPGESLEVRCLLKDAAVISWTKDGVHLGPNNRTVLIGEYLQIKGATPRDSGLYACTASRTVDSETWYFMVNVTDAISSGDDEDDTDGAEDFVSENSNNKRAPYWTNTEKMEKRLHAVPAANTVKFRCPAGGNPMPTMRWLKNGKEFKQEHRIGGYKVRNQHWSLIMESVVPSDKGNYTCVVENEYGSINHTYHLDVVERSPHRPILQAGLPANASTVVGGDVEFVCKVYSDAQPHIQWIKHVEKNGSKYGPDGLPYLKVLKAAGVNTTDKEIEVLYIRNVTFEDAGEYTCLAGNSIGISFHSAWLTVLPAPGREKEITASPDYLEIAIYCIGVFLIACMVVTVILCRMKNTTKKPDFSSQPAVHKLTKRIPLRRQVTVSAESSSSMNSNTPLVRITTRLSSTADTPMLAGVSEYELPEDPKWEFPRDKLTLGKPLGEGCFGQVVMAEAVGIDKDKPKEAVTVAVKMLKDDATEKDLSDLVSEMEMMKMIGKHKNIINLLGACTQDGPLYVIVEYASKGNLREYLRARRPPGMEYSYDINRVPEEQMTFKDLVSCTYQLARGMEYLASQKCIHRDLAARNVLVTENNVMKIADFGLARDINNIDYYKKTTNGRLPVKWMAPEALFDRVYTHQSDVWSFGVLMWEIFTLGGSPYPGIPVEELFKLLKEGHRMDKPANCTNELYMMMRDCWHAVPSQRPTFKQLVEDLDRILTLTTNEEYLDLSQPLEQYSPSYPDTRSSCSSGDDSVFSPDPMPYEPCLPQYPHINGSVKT
From the text: as §1, §2

[3] = target: FGFR3 (Homo sapiens (Human), UniProt P22607); test: FGFR Enzymatic Assay (FRET peptide phosphorylation), FGFR3; conditions: read-out: FGFR3 IC50; pre-incubated for 4 hours
Chain of FGFR3 (P22607 23-806): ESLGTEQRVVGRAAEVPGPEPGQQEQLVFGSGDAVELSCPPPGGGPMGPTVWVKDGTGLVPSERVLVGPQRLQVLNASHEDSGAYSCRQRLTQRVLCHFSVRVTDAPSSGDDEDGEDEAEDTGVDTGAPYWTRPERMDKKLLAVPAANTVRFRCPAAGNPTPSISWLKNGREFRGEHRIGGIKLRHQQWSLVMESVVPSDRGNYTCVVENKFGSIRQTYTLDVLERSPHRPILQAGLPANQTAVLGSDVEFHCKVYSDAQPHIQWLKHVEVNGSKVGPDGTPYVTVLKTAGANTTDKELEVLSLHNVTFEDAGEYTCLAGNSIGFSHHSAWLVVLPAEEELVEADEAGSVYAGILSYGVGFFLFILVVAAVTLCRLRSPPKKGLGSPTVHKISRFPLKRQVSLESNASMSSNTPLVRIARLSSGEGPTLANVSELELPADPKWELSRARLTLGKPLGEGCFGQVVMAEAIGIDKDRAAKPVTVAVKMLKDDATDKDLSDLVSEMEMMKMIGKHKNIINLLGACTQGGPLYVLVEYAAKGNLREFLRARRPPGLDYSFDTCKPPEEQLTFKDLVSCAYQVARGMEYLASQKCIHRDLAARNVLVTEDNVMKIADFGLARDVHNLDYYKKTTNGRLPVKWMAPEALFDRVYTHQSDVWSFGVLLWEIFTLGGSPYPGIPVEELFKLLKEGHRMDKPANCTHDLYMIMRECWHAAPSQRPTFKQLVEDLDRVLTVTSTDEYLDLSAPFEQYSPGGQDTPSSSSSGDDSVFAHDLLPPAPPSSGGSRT
From the text: as §1, §2

[4] = target: FGFR4 (Homo sapiens (Human), UniProt P22455); test: FGFR Enzymatic Assay (FRET peptide phosphorylation), FGFR4; conditions: for FGFR1/FGFR4 IC50 ratio / FGFR2/FGFR4 IC50 ratio / FGFR3/FGFR4 IC50 ratio: IC50 ratio showing FGFR4 selectivity
Chain of FGFR4 (P22455 22-802): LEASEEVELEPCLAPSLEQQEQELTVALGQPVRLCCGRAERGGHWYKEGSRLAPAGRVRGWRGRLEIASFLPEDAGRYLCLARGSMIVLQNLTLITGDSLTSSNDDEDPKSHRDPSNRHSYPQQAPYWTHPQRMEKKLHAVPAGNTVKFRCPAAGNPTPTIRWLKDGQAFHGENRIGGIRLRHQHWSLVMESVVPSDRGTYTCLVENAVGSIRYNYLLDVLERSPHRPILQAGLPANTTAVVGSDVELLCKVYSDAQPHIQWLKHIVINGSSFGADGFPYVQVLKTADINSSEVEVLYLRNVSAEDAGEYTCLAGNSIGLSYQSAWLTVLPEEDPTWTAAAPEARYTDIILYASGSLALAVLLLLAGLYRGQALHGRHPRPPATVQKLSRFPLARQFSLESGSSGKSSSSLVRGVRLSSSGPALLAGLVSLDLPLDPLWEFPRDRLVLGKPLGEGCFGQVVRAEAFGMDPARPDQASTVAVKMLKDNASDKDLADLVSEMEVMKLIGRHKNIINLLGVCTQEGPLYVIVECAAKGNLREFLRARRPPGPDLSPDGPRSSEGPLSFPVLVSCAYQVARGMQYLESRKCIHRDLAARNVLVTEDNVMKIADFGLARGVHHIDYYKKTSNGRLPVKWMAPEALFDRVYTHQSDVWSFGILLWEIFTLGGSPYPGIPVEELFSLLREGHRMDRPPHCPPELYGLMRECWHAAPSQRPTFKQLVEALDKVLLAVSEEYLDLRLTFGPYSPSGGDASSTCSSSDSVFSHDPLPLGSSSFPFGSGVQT
From the text: as §1, §2

[5] = read-out: FGFR4 IC50, pre-incubated for 4 hours

Chain of FGFR1 (P11362 22-822): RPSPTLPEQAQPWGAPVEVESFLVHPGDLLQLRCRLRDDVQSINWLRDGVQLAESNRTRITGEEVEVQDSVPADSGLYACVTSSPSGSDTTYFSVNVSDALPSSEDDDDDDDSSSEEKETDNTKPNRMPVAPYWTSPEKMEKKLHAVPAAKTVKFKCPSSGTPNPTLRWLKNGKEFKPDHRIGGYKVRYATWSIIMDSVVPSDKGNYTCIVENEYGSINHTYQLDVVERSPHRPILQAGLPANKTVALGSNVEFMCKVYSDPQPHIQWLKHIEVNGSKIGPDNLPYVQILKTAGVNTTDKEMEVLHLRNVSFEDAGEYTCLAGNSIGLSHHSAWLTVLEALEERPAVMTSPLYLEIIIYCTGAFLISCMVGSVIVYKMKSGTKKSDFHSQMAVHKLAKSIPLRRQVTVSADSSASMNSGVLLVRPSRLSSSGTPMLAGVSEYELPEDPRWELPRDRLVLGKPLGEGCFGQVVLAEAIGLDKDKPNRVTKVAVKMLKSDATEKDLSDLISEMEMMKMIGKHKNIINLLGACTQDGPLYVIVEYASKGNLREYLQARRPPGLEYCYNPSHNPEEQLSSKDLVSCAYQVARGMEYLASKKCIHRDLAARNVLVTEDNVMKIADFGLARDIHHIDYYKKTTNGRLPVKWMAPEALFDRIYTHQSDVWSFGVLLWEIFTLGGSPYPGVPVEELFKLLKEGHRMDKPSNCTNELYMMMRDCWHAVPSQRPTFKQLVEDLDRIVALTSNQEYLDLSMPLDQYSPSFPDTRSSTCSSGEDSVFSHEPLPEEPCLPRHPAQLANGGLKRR

C=CC(=O)Nc1cn[nH]c1-c1cc2c(cn1)CN(c1c(F)c(OC)cc(OC)c1F)C(=O)C21CC1 [Example 14, N-(5-(2′-(2,6-difluoro-3,5-dimethoxyphenyl)-3′-oxo-2′,3′-dihydro-1′H-spiro[cyclopropane-1,4′-[2,7]naphthyridine]-6′-yl)-1H-pyrazol-4-yl)acrylamide]
IC50 [1]: > 200 nM | IC50 [2]: > 200 nM | IC50 [3]: > 200 nM | FGFR1/FGFR4 IC50 ratio ([4]; pre-incubated for 4 hours): >100 | FGFR2/FGFR4 IC50 ratio ([4]; pre-incubated for 4 hours): >100 | FGFR3/FGFR4 IC50 ratio ([4]; pre-incubated for 4 hours): >100 | IC50 [4, 5]: < 10 nM

C=CC(=O)Nc1cnn(CCOC)c1-c1cc2c(cn1)CN(c1c(F)c(OC)cc(OC)c1F)C(=O)C21CC1 [Example 15, N-(5-(2′-(2,6-difluoro-3,5-dimethoxyphenyl)-3′-oxo-2′,3′-dihydro-1′H-spiro[cyclopropane-1,4′-[2,7]naphthyridine]-6′-yl)-1-(2-methoxyethyl)-1H-pyrazol-4-yl)acrylamide]
IC50 [1]: > 200 nM | IC50 [2]: > 200 nM | IC50 [3]: > 200 nM | FGFR1/FGFR4 IC50 ratio ([4]; pre-incubated for 4 hours): >100 | FGFR2/FGFR4 IC50 ratio ([4]; pre-incubated for 4 hours): >100 | FGFR3/FGFR4 IC50 ratio ([4]; pre-incubated for 4 hours): >100 | IC50 [4, 5]: < 10 nM

C=CC(=O)Nc1cnn(CCOCC)c1-c1cc2c(cn1)CN(c1c(F)c(OC)cc(OC)c1F)C(=O)C21CC1 [Example 16, N-(5-(2′-(2,6-difluoro-3,5-dimethoxyphenyl)-3′-oxo-2′,3′-dihydro-1′H-spiro[cyclopropane-1,4′-[2,7]naphthyridine]-6′-yl)-1-(2-ethoxyethyl)-1H-pyrazol-4-yl)acrylamide]
IC50 [1]: > 200 nM | IC50 [2]: > 200 nM | IC50 [3]: > 200 nM | FGFR1/FGFR4 IC50 ratio ([4]; pre-incubated for 4 hours): >100 | FGFR2/FGFR4 IC50 ratio ([4]; pre-incubated for 4 hours): >100 | FGFR3/FGFR4 IC50 ratio ([4]; pre-incubated for 4 hours): >100 | IC50 [4, 5]: < 10 nM

C=CC(=O)Nc1cnn(CCO)c1-c1cc2c(cn1)CN(c1c(F)c(OC)cc(OC)c1F)C(=O)C21CC1 [Example 17, N-(5-(2′-(2,6-difluoro-3,5-dimethoxyphenyl)-3′-oxo2′,3′-dihydro-1′H-spiro[cyclopropane-1,4′-[2,7]naphthyridine]-6′-yl)-1-(2-hydroxyethyl)-1H-pyrazol-4-yl)acrylamide]
IC50 [1]: > 200 nM | IC50 [2]: > 200 nM | IC50 [3]: > 200 nM | FGFR1/FGFR4 IC50 ratio ([4]; pre-incubated for 4 hours): >100 | FGFR2/FGFR4 IC50 ratio ([4]; pre-incubated for 4 hours): >100 | FGFR3/FGFR4 IC50 ratio ([4]; pre-incubated for 4 hours): >100 | IC50 [4, 5]: < 10 nM

C=CC(=O)Nc1cnn(C2CCOCC2)c1-c1cc2c(cn1)CN(c1c(F)c(OC)cc(OC)c1F)C(=O)C21CC1 [Example 18, N-(5-(2′-(2,6-difluoro-3,5-dimethoxyphenyl)-3′,-oxo-2′,3′-dihydro-1′H-spiro[cyclopropane-1,4′-[2,7]naphthyridine]-6′-yl)-1-(tetrahydro-2H-pyran-4-yl)-1H-pyrazol-4-yl)acrylamide]
IC50 [1]: > 200 nM | IC50 [2]: > 200 nM | IC50 [3]: > 200 nM | IC50 [4]: 10 to 30 nM | FGFR1/FGFR4 IC50 ratio ([4]; pre-incubated for 4 hours): >100 | FGFR2/FGFR4 IC50 ratio ([4]; pre-incubated for 4 hours): >50 | FGFR3/FGFR4 IC50 ratio ([4]; pre-incubated for 4 hours): >100

C=CC(=O)Nc1cnn(CCN2CCOCC2)c1-c1cc2c(cn1)CN(c1c(F)c(OC)cc(OC)c1F)C(=O)C21CC1 [Example 19, N-(5-(2′-(2,6-difluoro-3,5-dimethoxyphenyl)-3′-oxo-2′,3′-dihydro-1′H-spiro[cyclopropane-1,4′-[2,7]naphthyridine]-6′-yl)-1-(2-morpholinoethyl)-1H-pyrazol-4-yl)acrylamide]
IC50 [1]: > 200 nM | IC50 [2]: > 200 nM | IC50 [3]: > 200 nM | IC50 [4]: 10 to 30 nM | FGFR1/FGFR4 IC50 ratio ([4]; pre-incubated for 4 hours): >100 | FGFR2/FGFR4 IC50 ratio ([4]; pre-incubated for 4 hours): >100 | FGFR3/FGFR4 IC50 ratio ([4]; pre-incubated for 4 hours): >100

C=CC(=O)Nc1cnn(Cc2ccncc2)c1-c1cc2c(cn1)CN(c1c(F)c(OC)cc(OC)c1F)C(=O)C21CC1 [Example 21, N-(5-(2′-(2,6-difluoro-3,5-dimethoxyphenyl)-3′-oxo-2′,3′-dihydro-1′H-spiro[cyclopropane-1,4′-[2,7]naphthyridine]-6′-yl)-1-(pyridin-4-ylmethyl)-1H-pyrazol-4-yl)acrylamide]
IC50 [1]: > 200 nM | IC50 [2]: > 200 nM | IC50 [3]: > 200 nM | FGFR1/FGFR4 IC50 ratio ([4]; pre-incubated for 4 hours): >100 | FGFR2/FGFR4 IC50 ratio ([4]; pre-incubated for 4 hours): >50 | FGFR3/FGFR4 IC50 ratio ([4]; pre-incubated for 4 hours): >100 | IC50 [4, 5]: < 10 nM

C=CC(=O)Nc1cnn(Cc2cccnc2)c1-c1cc2c(cn1)CN(c1c(F)c(OC)cc(OC)c1F)C(=O)C21CC1 [Example 22, N-(5-(2′-(2,6-difluoro-3,5-dimethoxyphenyl)-3′-oxo-2′,3′-dihydro-1′H-spiro[cyclopropane-1,4′-[2,7]naphthyridine]-6′-yl)-1-(pyridin-3-ylmethyl)-1H-pyrazol-4-yl)acrylamide]
IC50 [1]: > 200 nM | IC50 [2]: > 200 nM | IC50 [3]: > 200 nM | FGFR1/FGFR4 IC50 ratio ([4]; pre-incubated for 4 hours): >100 | FGFR2/FGFR4 IC50 ratio ([4]; pre-incubated for 4 hours): >100 | FGFR3/FGFR4 IC50 ratio ([4]; pre-incubated for 4 hours): >100 | IC50 [4, 5]: < 10 nM

C=CC(=O)Nc1cnn(Cc2ncn(C)n2)c1-c1cc2c(cn1)CN(c1c(F)c(OC)cc(OC)c1F)C(=O)C21CC1 [Example 23, N-(5-(2′-(2,6-difluoro-3,5-dimethoxyphenyl)-3′-oxo-2′,3′-dihydro-1′H-spiro[cyclopropane-1,4′-[2,7]naphthyridine]-6′-yl)-1-((1-methyl-1H-1,2,4-triazol-3-yl)methyl)-1H-pyrazol-4-yl)acrylamide]
IC50 [1]: > 200 nM | IC50 [2]: > 200 nM | IC50 [3]: > 200 nM | FGFR1/FGFR4 IC50 ratio ([4]; pre-incubated for 4 hours): >100 | FGFR2/FGFR4 IC50 ratio ([4]; pre-incubated for 4 hours): >100 | FGFR3/FGFR4 IC50 ratio ([4]; pre-incubated for 4 hours): >100 | IC50 [4, 5]: < 10 nM

C=CC(=O)Nc1cnn(CC2CCOCC2)c1-c1cc2c(cn1)CN(c1c(F)c(OC)cc(OC)c1F)C(=O)C21CC1 [Example 24, N-(5-(2′-(2,6-difluoro-3,5-dimethoxyphenyl)-3′-oxo,2′,3′-dihydro-1′H-spiro[cyclopropane-1,4′-[2,7]naphthyridine]-6′-yl)-1-((tetrahydro-2H-pyran-4-yl)methyl)-1H-pyrazol-4-yl)acrylamide]
IC50 [1]: > 200 nM | IC50 [2]: > 200 nM | IC50 [3]: > 200 nM | IC50 [4]: 10 to 30 nM | FGFR1/FGFR4 IC50 ratio ([4]; pre-incubated for 4 hours): >100 | FGFR2/FGFR4 IC50 ratio ([4]; pre-incubated for 4 hours): >100 | FGFR3/FGFR4 IC50 ratio ([4]; pre-incubated for 4 hours): >100

C=CC(=O)Nc1cnn(Cc2ccon2)c1-c1cc2c(cn1)CN(c1c(F)c(OC)cc(OC)c1F)C(=O)C21CC1 [Example 25, N-(5-(2′-(2,6-difluoro-3,5-dimethoxyphenyl)-3′-oxo-2′,3′-dihydro-1′H-spiro[cyclopropane-1,4′-[2,7]naphthyridine]-6′-yl)-1-(isoxazol-3-ylmethyl)-1H-pyrazol-4-yl)acrylamide]
IC50 [1]: > 200 nM | IC50 [2]: > 200 nM | IC50 [3]: > 200 nM | FGFR1/FGFR4 IC50 ratio ([4]; pre-incubated for 4 hours): >100 | FGFR2/FGFR4 IC50 ratio ([4]; pre-incubated for 4 hours): >100 | FGFR3/FGFR4 IC50 ratio ([4]; pre-incubated for 4 hours): >100 | IC50 [4, 5]: < 10 nM

C=CC(=O)Nc1cnn(Cc2ccnn2C)c1-c1cc2c(cn1)CN(c1c(F)c(OC)cc(OC)c1F)C(=O)C21CC1 [Example 26, N-(5-(2′-(2,6-difluoro-3,5-dimethoxyphenyl)-3′-oxo-2′,3′-dihydro-1′H-spiro[cyclopropane-1,4′-[2,7]naphthyridine]-6′-yl)-1-((1-methyl-1H-pyrazol-5-yl)methyl)-1H-pyrazol-4-yl)acrylamide]
IC50 [1]: > 200 nM | IC50 [2]: > 200 nM | IC50 [3]: > 200 nM | IC50 [4]: 10 to 30 nM | FGFR1/FGFR4 IC50 ratio ([4]; pre-incubated for 4 hours): >100 | FGFR2/FGFR4 IC50 ratio ([4]; pre-incubated for 4 hours): >50 | FGFR3/FGFR4 IC50 ratio ([4]; pre-incubated for 4 hours): >100

C=CC(=O)Nc1cnn(Cc2cnn(C)c2)c1-c1cc2c(cn1)CN(c1c(F)c(OC)cc(OC)c1F)C(=O)C21CC1 [Example 27, N-(5-(2′-(2,6-difluoro-3,5-dimethoxyphenyl)-3′-oxo-2′,3′-dihydro-1′H-spiro[cyclopropane-1,4′-[2,7]naphthyridine]-6′-yl)-1-((1-methyl-1H-pyrazol-4-yl)methyl)-1H-pyrazol-4-yl)acrylamide]
IC50 [1]: > 200 nM | IC50 [2]: > 200 nM | IC50 [3]: > 200 nM | FGFR1/FGFR4 IC50 ratio ([4]; pre-incubated for 4 hours): >100 | FGFR2/FGFR4 IC50 ratio ([4]; pre-incubated for 4 hours): >100 | FGFR3/FGFR4 IC50 ratio ([4]; pre-incubated for 4 hours): >100 | IC50 [4, 5]: < 10 nM

C=CC(=O)Nc1cnn(C[C@@H]2CCOC2)c1-c1cc2c(cn1)CN(c1c(F)c(OC)cc(OC)c1F)C(=O)C21CC1 [Example 28, (S)-N-(5-(2′-(2,6-difluoro-3,5-dimethoxyphenyl)-3′-oxo-2′,3′-dihydro-1′H-spiro[cyclopropane-1,4′-[2,7]naphthyridine]-6′-yl)-1-((tetrahydrofuran-3-yl)methyl)-1H-pyrazol-4-yl)acrylamide]
IC50 [1]: > 200 nM | IC50 [2]: > 200 nM | IC50 [3]: > 200 nM | IC50 [4]: 10 to 30 nM | FGFR1/FGFR4 IC50 ratio ([4]; pre-incubated for 4 hours): >100 | FGFR2/FGFR4 IC50 ratio ([4]; pre-incubated for 4 hours): >100 | FGFR3/FGFR4 IC50 ratio ([4]; pre-incubated for 4 hours): >100

C=CC(=O)Nc1cnn(C[C@H]2CCOC2)c1-c1cc2c(cn1)CN(c1c(F)c(OC)cc(OC)c1F)C(=O)C21CC1 [Example 29, (R)-N-(5-(2′-(2,6-difluoro-3,5-dimethoxyphenyl)-3′-oxo-2′,3′-dihydro-1′H-spiro[cyclopropane-1,4′-[2,7]naphthyridine]-6′-yl)-1-((tetrahydrofuran-3-yl)methyl)-1H-pyrazol-4-yl)acrylamide]
IC50 [1]: > 200 nM | IC50 [2]: > 200 nM | IC50 [3]: > 200 nM | FGFR1/FGFR4 IC50 ratio ([4]; pre-incubated for 4 hours): >100 | FGFR2/FGFR4 IC50 ratio ([4]; pre-incubated for 4 hours): >100 | FGFR3/FGFR4 IC50 ratio ([4]; pre-incubated for 4 hours): >100 | IC50 [4, 5]: < 10 nM

C=CC(=O)Nc1cnn(C[C@H]2CCCO2)c1-c1cc2c(cn1)CN(c1c(F)c(OC)cc(OC)c1F)C(=O)C21CC1 [Example 30, (R)-N-(5-(2′-(2,6-difluoro-3,5-dimethoxyphenyl)-3′-oxo-2′,3′-dihydro-1′H-spiro[cyclopropane-1,4′-[2,7]naphthyridine]-6′-yl)-1-((tetrahydrofuran-2-yl)methyl)-1H-pyrazol-4-yl)acrylamide]
IC50 [1]: > 200 nM | IC50 [2]: > 200 nM | IC50 [3]: > 200 nM | FGFR1/FGFR4 IC50 ratio ([4]; pre-incubated for 4 hours): >100 | FGFR2/FGFR4 IC50 ratio ([4]; pre-incubated for 4 hours): >100 | FGFR3/FGFR4 IC50 ratio ([4]; pre-incubated for 4 hours): >100 | IC50 [4, 5]: < 10 nM
